Results published in patent EP4332093A1, “SALT CONTAINING PIPERAZINE POLYCYCLIC DERIVATIVE, CRYSTAL FORM THEREOF, PREPARATION METHOD THEREFOR, AND USE THEREOF” (Shanghai Hansoh Biomedical Co., Ltd., priority 2021, dated 2022).
Counter-ions that a name gives are not always drawn.

Legend:
Assay type in all cases: physicochemical
[1] = Hygroscopicity experiment of crystal form A of hydrochloride
[2] = Pressure crystal transformation test; conditions: tablet press at maximum pressure
Excerpt: The tablet press was adjusted to the maximum pressure. It was pressed into a tablet and then was subjected to PXRD characterization.

[3] = Salt form quantification (HPLC-ELSD); conditions: Conclusion from Cl- content compared with theoretical values
Experimental: The number of acids binding in the salt form was quantified by HPLC-ELSD test. An appropriate amount of NaCl was weighed, and a series of linear solutions of different concentrations with the diluent acetonitrile-water (50:50) was prepared. […] The above linear solution and hydrochloride samples solution was taken to filter. [table]

[4] = Grinding crystal transformation test; conditions: ground in a mortar for 5 min
[5] = Solid stability experiment of crystal forms of salt (5 and 10 days); conditions: all conditions: light 5000lx, 60°C, 92.5% RH, 50°C 75% RH; 5 and 10 days
Experimental: About 1 mg of different crystal forms of salt were taken and placed under the conditions of light 5000lx, high temperature 60°C, high humidity 92.5%RH, high temperature and high humidity 50°C 75%RH for 5 days and 10 days. The salt content was determined by HPLC and external standard method, and the change of relevant substances was calculated by chromatographic peak area normalization method.

[6] = Crystal form stability study of hydrochloride for 30 days; conditions: 30 days; light 5000lux, 60°C, 92.5% RH, 40°C & 75% RH
Experimental: The diluent 80% methanol solution was added to prepare a solution containing about 0.5 mg/mL hydrochloride. The mixture was sonicated for 30min to produce a clear solution. 1mL of the soluion was filtered and measured by HPLC. See "2.3.4" for the HPLC analysis method. The content of related substances was calculated according to the peak area normalization method, and the results are shown in Table 32 below. Table 32 HPLC data of hydrochloride in stability experimental conditions for 30 days

[7] = Thermodynamic stability experiment of crystal form (pulping in solvents, XRPD); conditions: for Results after pulping (crystal form by XRPD): pulped for 1 week at room temperature and 50°C
Experimental: An organic solvent with a certain solubility was selected. […] The supernatant was discarded, and the solid was dried in vacuum (-0.1 Mpa) overnight at 50°C. The XRPD of the solid was determined and compared with XRPD of raw compound salt.

O=C(N[C@H]1C[C@H](CCN2CCN(c3cccc(Cl)c3Cl)CC2)C1)c1ncco1 [crystal form A of hydrochloride]
hygroscopicity [1]: slightly hygroscopic | XRPD pattern after humidification and dehumidification ([1]; 2 cycles, 0 to 95% relative humidity): does not change | hygroscopic weight gain ([1]; RH 80%): 0.509% | crystal transformation before and after pressure (PXRD) [2]: didn't undergo crystal transformation | The number of hydrochloric acid binding [3]: The number of hydrochloric acid binding in crystal form A of hydrochloride is 1 | crystal transformation before and after grinding (PXRD) [4]: didn't undergo crystal transformation | crystal form stability (impurities) [5]: stable under all conditions | crystal form change (PXRD) [6]: does not undergo crystal form change | impurities (HPLC) [6]: do not increase significantly | Results after pulping (crystal form by XRPD) ([7]; 1,4-Dioxane): Crystal form A | crystal form after being pulped by different solvents (XRPD) ([7]; 1 week at room temperature and 50°C): the crystal form does not change | Results after pulping (crystal form by XRPD) ([7]; 2-Butanone): Crystal form A | Results after pulping (crystal form by XRPD) ([7]; 2-Methyl-tetrahydrofuran): Crystal form A | Results after pulping (crystal form by XRPD) ([7]; Acetone): Crystal form A | Results after pulping (crystal form by XRPD) ([7]; Acetonitrile): Crystal form A | Results after pulping (crystal form by XRPD) ([7]; Dichloromethane): Crystal form A | Results after pulping (crystal form by XRPD) ([7]; Ethanol): Crystal form A | Results after pulping (crystal form by XRPD) ([7]; Ethyl acetate): Crystal form A | Results after pulping (crystal form by XRPD) ([7]; Ethyl formate): Crystal form A | Results after pulping (crystal form by XRPD) ([7]; Isopropanol): Crystal form A | Results after pulping (crystal form by XRPD) ([7]; Methanol): Crystal form A | Results after pulping (crystal form by XRPD) ([7]; Methyl tert-butyl ether): Crystal form A | Results after pulping (crystal form by XRPD) ([7]; Tetrahydrofuran): Crystal form A | Results after pulping (crystal form by XRPD) ([7]; Toluene): Crystal form A | Results after pulping (crystal form by XRPD) ([7]; n-Heptane): Crystal form A
